One substance from patent US20090156563A1, “Glucan Compositions” (priority 2005, published 2009) can be followed below.

This test has as its system skin of the forearm. As to the kind of experiment: Determination of skin roughness (DIN 4768ff, profilometry of silicone skin impressions). Format: in vivo, human. As to conditions: 10% glyceryl stearate, 8 hours after application. The protocol:
An aqueous lotion for the treatment of skin roughness is formulated from an aqueous emulsion containing 10% by weight of glyceryl stearate and either 0.005% or 0.05% or 0.5% by weight of β-1,3-scleroglucan (using formulations A-D described further above).
The determination of skin roughness is conducted according to German standard DIN 4768ff. The roughness of the skin is determined by taking silicone-based skin impressions and then measuring the surface profile of the impressions, using computer-aided profilometry. The skin roughness is calculated from the multiple measuring points (100 points per square millimeter). The number of volunteers used is 10. The determination of skin roughness is conducted both prior to application of the test lotion and 8 hours after application of the test lotion. The skin of the forearm is used as the skin test area. For the purpose of comparison, a control experiment is conducted using a placebo containing none of the scleroglucan formulations.

Turning to β-1,3-scleroglucan, the “reduction of skin roughness (relative to untreated skin)” value reads like this: (lotion with 0.005% by weight β-1,3-scleroglucan (formulations A-D)) “good reduction”; (lotion with 0.05% by weight β-1,3-scleroglucan (formulations A-D)) “good reduction”.
